Test results taken from ChEMBL document CHEMBL1156754, “Human P2Y(14) receptor agonists: truncation of the hexose moiety of uridine-5'-diphosphoglucose and its replacement with alkyl and aryl groups” (J Med Chem, 2010).
Activity calls are given as the source filed them. The rule behind the calls is not given here.

organism: Homo sapiens; experiment: Selectivity, ratio of EC50 for human P2Y6 receptor to EC50 for human P2Y14 receptor; conditions: not given

Compared with CCCOP(=O)(O)OP(=O)(O)OC[C@H]1O[C@@H](n2ccc(=O)[nH]c2=S)[C@H](O)[C@@H]1O, CCOP(=O)(O)OP(=O)(O)OC[C@H]1O[C@@H](n2ccc(=O)[nH]c2=S)[C@H](O)[C@@H]1O is higher in Ratio EC50: 230 for the first, greater than 250 for the second.

Compared with CC(C)(C)OP(=O)(O)OP(=O)(O)OC[C@H]1O[C@@H](n2ccc(=O)[nH]c2=O)[C@H](O)[C@@H]1O, CC(C)(C)OP(=O)(O)OP(=O)(O)OC[C@H]1O[C@@H](n2ccc(=O)[nH]c2=S)[C@H](O)[C@@H]1O is higher in Ratio EC50: 43 for the first, 64 for the second.

Compared with O=c1ccn([C@@H]2O[C@H](COP(=O)(O)CP(=O)(O)O)[C@@H](O)[C@H]2O)c(=O)[nH]1, O=c1ccn([C@@H]2O[C@H](COP(=O)(O)CP(=O)(O)O)[C@@H](O)[C@H]2O)c(=S)[nH]1 is higher in Ratio EC50: 31 for the first, 2160 for the second.

Compared with O=c1ccn([C@@H]2O[C@H](COP(=O)(O)OP(=O)(O)O)[C@@H](O)[C@H]2O)c(=S)[nH]1, O=c1ccn([C@@H]2O[C@H](COP(=O)(O)OP(=O)(O)OC(CO)CO)[C@@H](O)[C@H]2O)c(=O)[nH]1 is lower in Ratio EC50: 230 for the first, 59 for the second.

target: T1, P2Y purinoceptor 14 (Homo sapiens) (UniProt Q15391); experiment: Agonist activity at human P2Y14 receptor expressed in HEK293 cells coexpressing phospholipase C-activating Gi protein cells assessed as inhibition of forskolin induced [3H]cAMP production at 10 uM; assay type: functional, cell-based; conditions: not given
T1 sequence (whole entry): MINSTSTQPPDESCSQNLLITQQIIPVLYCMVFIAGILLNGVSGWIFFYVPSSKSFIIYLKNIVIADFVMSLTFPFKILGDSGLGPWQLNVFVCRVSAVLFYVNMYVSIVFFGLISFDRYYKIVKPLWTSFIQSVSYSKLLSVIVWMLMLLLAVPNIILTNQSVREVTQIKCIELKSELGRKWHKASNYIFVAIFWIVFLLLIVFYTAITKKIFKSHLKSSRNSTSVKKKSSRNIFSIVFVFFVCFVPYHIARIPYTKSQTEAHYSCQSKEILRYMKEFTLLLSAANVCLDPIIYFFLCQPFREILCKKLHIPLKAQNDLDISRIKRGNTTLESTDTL

With O=c1ccn([C@H]2[C@H](O)[C@H](O)[C@@]3(COP(=O)(O)OP(=O)(O)O)C[C@H]23)c(=O)[nH]1 the Activity was “inactive”.
With O=c1ccn([C@@]23C[C@H]2[C@H](COP(=O)(O)OP(=O)(O)O)[C@@H](O)[C@H]3O)c(=O)[nH]1 the Activity was “inactive”.

target: T2, P2Y purinoceptor 14 (Homo sapiens, UniProt Q15391); experiment: Agonist activity at human P2Y14 receptor expressed in HEK293 cells coexpressing phospholipase C-activating Gi protein cells assessed as inhibition of forskolin induced [3H]cAMP production; assay type: functional, cell-based; conditions: hek293
T2 sequence (Q15391 whole entry): T1 sequence (whole entry)

CCN(CC)CC.COP(=O)(O)OP(=O)(O)OC[C@H]1O[C@@H](n2ccc(=S)[nH]c2=O)[C@H](O)[C@@H]1O was tested, and the EC50 was “Not Active”.

same assay, conditions: read-out: EC50

COc1ccc(OP(=O)(O)OP(=O)(O)OC[C@H]2O[C@@H](n3ccc(=O)[nH]c3=O)[C@H](O)[C@@H]2O)cc1 and O=c1ccn([C@@H]2O[C@H](COP(=O)(O)OP(=O)(O)Oc3ccc([N+](=O)[O-])cc3)[C@@H](O)[C@H]2O)c(=O)[nH]1 are within 1.5-fold of each other in EC50: 1900 nM for the first, 1490 nM for the second.

CCCOP(=O)(O)OP(=O)(O)OC[C@H]1O[C@@H](n2ccc(=O)[nH]c2=S)[C@H](O)[C@@H]1O and CCOP(=O)(O)OP(=O)(O)OC[C@H]1O[C@@H](n2ccc(=O)[nH]c2=S)[C@H](O)[C@@H]1O are within 1.5-fold of each other in EC50: 40 nM for the first, 39 nM for the second.

Going from COP(=O)(O)OP(=O)(O)OC[C@H]1O[C@@H](n2ccc(=O)[nH]c2=O)[C@H](O)[C@@H]1O to COP(=O)(O)OP(=O)(O)OC[C@H]1O[C@@H](n2ccc(=O)[nH]c2=S)[C@H](O)[C@@H]1O, the EC50 falls from 2730 nM to 56 nM (49-fold).

First: CC(C)(C)OP(=O)(O)OP(=O)(O)OC[C@H]1O[C@@H](n2ccc(=O)[nH]c2=O)[C@H](O)[C@@H]1O
Second: CC(C)(C)OP(=O)(O)OP(=O)(O)OC[C@H]1O[C@@H](n2ccc(=O)[nH]c2=S)[C@H](O)[C@@H]1O
The EC50 of the first is 7.9-fold higher: 252 nM for the first, 32 nM for the second. The second is the more potent here.

Going from CO/N=c1/ccn([C@@H]2O[C@H](COP(=O)(O)OP(=O)(O)O)[C@@H](O)[C@H]2O)c(=O)[nH]1 to O=c1[nH]c(=S)ccn1[C@@H]1O[C@H](COP(=O)(O)OP(=O)(O)O)[C@@H](O)[C@H]1O, the EC50 falls from 3320 nM to 320 nM (10-fold).

First: O=c1ccn([C@@H]2O[C@H](COP(=O)(O)CP(=O)(O)O)[C@@H](O)[C@H]2O)c(=O)[nH]1
Second: O=c1ccn([C@@H]2O[C@H](COP(=O)(O)CP(=O)(O)O)[C@@H](O)[C@H]2O)c(=S)[nH]1
The EC50 of the first is 12-fold higher: 11 nM for the first, 0.92 nM for the second.

Going from C#CCCOP(=O)(O)OP(=O)(O)OC[C@H]1O[C@@H](n2ccc(=O)[nH]c2=S)[C@H](O)[C@@H]1O to C#CCCOP(=O)(O)OP(=O)(O)OC[C@H]1O[C@@H](n2ccc(=O)[nH]c2=O)[C@H](O)[C@@H]1O, the EC50 rises from 11 nM to 480 nM (44-fold).

Going from O=c1ccn([C@@H]2O[C@H](COP(=O)(O)OP(=O)(O)O)[C@@H](O)[C@H]2O)c(=S)[nH]1 to O=c1ccn([C@@H]2O[C@H](COP(=O)(O)C(F)(F)P(=O)(O)O)[C@@H](O)[C@H]2O)c(=O)[nH]1, the EC50 rises from 1.92 nM to 63 nM (33-fold).

Compared with O=c1ccn([C@@H]2O[C@H](COP(=O)(O)OP(=O)(O)OC(CO)CO)[C@@H](O)[C@H]2O)c(=O)[nH]1, O=c1ccn([C@@H]2O[C@H](COP(=O)(O)OP(=O)(O)OCC(O)CO)[C@@H](O)[C@H]2O)c(=O)[nH]1 (some centres not stated) is 9.6-fold higher in EC50: 167 nM for the first, 1600 nM for the second. The first is the more potent here.

O=c1ccn([C@@H]2O[C@H](COP(=O)(O)OP(=O)(O)OC3CCCCC3)[C@@H](O)[C@H]2O)c(=O)[nH]1 and N#CCCOP(=O)(O)OP(=O)(O)OC[C@H]1O[C@@H](n2ccc(=O)[nH]c2=O)[C@H](O)[C@@H]1O are within 1.5-fold of each other in EC50: 5160 nM for the first, 7460 nM for the second.

First: O=c1[nH]c(=O)n([C@@H]2O[C@H](COP(=O)(O)C(F)(F)P(=O)(O)O)[C@@H](O)[C@H]2O)cc1I
Second: O=c1ccn([C@@H]2O[C@H](COP(=O)(O)OP(=O)(O)Oc3ccccc3)[C@@H](O)[C@H]2O)c(=O)[nH]1
The EC50 of the first is 5.4-fold lower: 142 nM for the first, 768 nM for the second. The first is the more potent here.

Going from O=c1[nH]c(=S)ccn1[C@@H]1O[C@H](COP(=O)(O)OP(=O)(O)O[C@H]2O[C@H](CO)[C@@H](O)[C@H](O)[C@H]2O)[C@@H](O)[C@H]1O to O=c1ccn([C@@H]2O[C@H](COP(=O)(O)OP(=O)(O)Oc3cccc(Cl)c3)[C@@H](O)[C@H]2O)c(=O)[nH]1, the EC50 rises from 11 nM to 1800 nM (160-fold). The first is the more potent here.

target: T3, P2Y purinoceptor 6 (Homo sapiens, UniProt Q15077); experiment: Agonist activity at human P2Y6 receptor expressed in human 1321N1 cells coexpressing phospholipase C-activating Gq protein assessed as [3H]inositol phosphate production at 10 uM; assay type: functional, cell-based; conditions: not given
T3 sequence (Q15077 whole entry): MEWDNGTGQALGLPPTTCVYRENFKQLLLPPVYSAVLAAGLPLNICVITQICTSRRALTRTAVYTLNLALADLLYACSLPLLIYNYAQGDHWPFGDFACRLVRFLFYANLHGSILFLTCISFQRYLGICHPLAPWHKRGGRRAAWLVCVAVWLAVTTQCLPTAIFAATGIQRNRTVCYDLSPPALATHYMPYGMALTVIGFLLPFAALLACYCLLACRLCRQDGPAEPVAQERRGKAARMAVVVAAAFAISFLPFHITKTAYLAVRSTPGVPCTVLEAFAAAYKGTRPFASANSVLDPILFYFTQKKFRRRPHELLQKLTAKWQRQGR

COc1ccc(OP(=O)(O)OP(=O)(O)OC[C@H]2O[C@@H](n3ccc(=O)[nH]c3=O)[C@H](O)[C@@H]2O)cc1 and COP(=O)(O)OP(=O)(O)OC[C@H]1O[C@@H](n2ccc(=O)[nH]c2=O)[C@H](O)[C@@H]1O cannot be ordered by EC50: greater than 10000 nM for the first, greater than 10000 nM for the second.

C#CCCOP(=O)(O)OP(=O)(O)OC[C@H]1O[C@@H](n2ccc(=O)[nH]c2=S)[C@H](O)[C@@H]1O and CCOP(=O)(O)OP(=O)(O)OC[C@H]1O[C@@H](n2ccc(=O)[nH]c2=S)[C@H](O)[C@@H]1O cannot be ordered by EC50: greater than 10000 nM for the first, greater than 10000 nM for the second.

O=c1ccn([C@@H]2O[C@H](COP(=O)(O)OP(=O)(O)OC(CO)CO)[C@@H](O)[C@H]2O)c(=O)[nH]1 and O=c1ccn([C@@H]2O[C@H](COP(=O)(O)OP(=O)(O)OCC(O)CO)[C@@H](O)[C@H]2O)c(=O)[nH]1 (some centres not stated) cannot be ordered by EC50: greater than 10000 nM for the first, greater than 10000 nM for the second.

O=c1ccn([C@@H]2O[C@H](COP(=O)(O)OP(=O)(O)OC3CCCCC3)[C@@H](O)[C@H]2O)c(=O)[nH]1 and N#CCCOP(=O)(O)OP(=O)(O)OC[C@H]1O[C@@H](n2ccc(=O)[nH]c2=O)[C@H](O)[C@@H]1O cannot be ordered by EC50: greater than 10000 nM for the first, greater than 10000 nM for the second.

O=c1[nH]c(=S)ccn1[C@@H]1O[C@H](COP(=O)(O)OP(=O)(O)O[C@H]2O[C@H](CO)[C@@H](O)[C@H](O)[C@H]2O)[C@@H](O)[C@H]1O and COP(=O)(O)OP(=O)(O)OC[C@H]1O[C@@H](n2ccc(=O)[nH]c2=S)[C@H](O)[C@@H]1O cannot be ordered by EC50: greater than 10000 nM for the first, greater than 10000 nM for the second.

O=c1ccn([C@H]2[C@H](O)[C@H](O)[C@@]3(COP(=O)(O)OP(=O)(O)O)C[C@H]23)c(=O)[nH]1 was tested, and the Activity was “inactive”.

target: T3, P2Y purinoceptor 6; experiment: Agonist activity at human P2Y6 receptor expressed in human 1321N1 cells coexpressing phospholipase C-activating Gq protein assessed as [3H]inositol phosphate production; assay type: functional, cell-based; conditions: 1321-n1

With O=c1ccn([C@@H]2O[C@H](COP(=O)(O)C(F)(F)P(=O)(O)O)[C@@H](O)[C@H]2O)c(=O)[nH]1 the EC50 was “Not Active”.

same assay, conditions: read-out: EC50

Going from CCCOP(=O)(O)OP(=O)(O)OC[C@H]1O[C@@H](n2ccc(=O)[nH]c2=S)[C@H](O)[C@@H]1O to O=c1ccn([C@@H]2O[C@H](COP(=O)(O)OP(=O)(O)O)[C@@H](O)[C@H]2O)c(=S)[nH]1, the EC50 falls from 9100 nM to 447 nM (20-fold).

First: CO/N=c1/ccn([C@@H]2O[C@H](COP(=O)(O)OP(=O)(O)O)[C@@H](O)[C@H]2O)c(=O)[nH]1
Second: O=c1ccn([C@@H]2O[C@H](COP(=O)(O)OP(=O)(O)O)[C@@H](O)[C@H]2O)c(=O)[nH]1 [URIDINE_DIPHOSPHATE]
The EC50 of the first is 7.6-fold lower: 70 nM for the first, 530 nM for the second. The first is the more potent here.

First: O=c1ccn([C@@H]2O[C@H](COP(=O)(O)CP(=O)(O)O)[C@@H](O)[C@H]2O)c(=O)[nH]1
Second: O=c1ccn([C@@H]2O[C@H](COP(=O)(O)CP(=O)(O)O)[C@@H](O)[C@H]2O)c(=S)[nH]1
The EC50 of the first is 5.9-fold lower: 339 nM for the first, 1990 nM for the second. The first is the more potent here.

First: O=c1[nH]c(=O)n([C@@H]2O[C@H](COP(=O)(O)C(F)(F)P(=O)(O)O)[C@@H](O)[C@H]2O)cc1I
Second: O=c1[nH]c(=S)ccn1[C@@H]1O[C@H](COP(=O)(O)OP(=O)(O)O)[C@@H](O)[C@H]1O
The EC50 of the first is 19-fold lower: 127 nM for the first, 2360 nM for the second.

O=c1ccn([C@@H]2O[C@H](COP(=O)(O)OP(=O)(O)Oc3ccccc3)[C@@H](O)[C@H]2O)c(=O)[nH]1 and O=c1ccn([C@@H]2O[C@H](COP(=O)(O)OP(=O)(O)Oc3cccc(Cl)c3)[C@@H](O)[C@H]2O)c(=O)[nH]1 are within 1.5-fold of each other in EC50: 7400 nM for the first, 7370 nM for the second.

Compared with O=c1ccn([C@@]23C[C@H]2[C@H](COP(=O)(O)OP(=O)(O)O)[C@@H](O)[C@H]3O)c(=O)[nH]1, C#CCCOP(=O)(O)OP(=O)(O)OC[C@H]1O[C@@H](n2ccc(=O)[nH]c2=O)[C@H](O)[C@@H]1O is 36-fold higher in EC50: 42 nM for the first, 1520 nM for the second.

First: CC(C)(C)OP(=O)(O)OP(=O)(O)OC[C@H]1O[C@@H](n2ccc(=O)[nH]c2=S)[C@H](O)[C@@H]1O
Second: CCN(CC)CC.COP(=O)(O)OP(=O)(O)OC[C@H]1O[C@@H](n2ccc(=S)[nH]c2=O)[C@H](O)[C@@H]1O
The EC50 of the first is 5.1-fold lower: 2040 nM for the first, 10400 nM for the second. The first is the more potent here.

In the case of O=c1ccn([C@@H]2O[C@H](COP(=O)(O)OP(=O)(O)Oc3ccc([N+](=O)[O-])cc3)[C@@H](O)[C@H]2O)c(=O)[nH]1, the EC50 is reported as 2760 nM.
